This note sets out measurements from US8133886B2, “Heterobicyclic carboxamides as inhibitors for kinases” (Novartis AG, priority 2006, dated 2012).

The melting point is the temperature, or range, at which the solid turns liquid.

Regarding `CCOC(=O)c1cc(Oc2ccc3c(C(=O)Nc4ccc(C(C)(C)C)cc4)cccc3c2)ncn1` [Example 18], the melting point was 177 to 178 °C. The same measure for `CC(C)(C)c1ccc(NC(=O)c2cccc3cc(Oc4cc(CO)ncn4)ccc23)cc1` [Example 18A, 6-(6-Hydroxymethyl-pyrimidin-4-yloxy)-naphthalene-1-carboxylic acid (4-tert-butyl-phenyl)-amide]: 202 to 203 °C; for `O=C(Nc1ccc(Cl)c(C(F)(F)F)c1)N1COc2cc(Oc3ccnc(Cl)n3)ccc21` [Example 1, 6-(2-Chloro-pyrimidin-4-yloxy)-benzooxazole-3-carboxylic acid (4-chloro-3-trifluoromethyl-phenyl)-amide]: 140 to 142 °C. `COc1ccc(-n2nc(C(C)(C)C)cc2NC(=O)c2cccc3cc(Oc4cc(NCCN(C)C)ncn4)ccc23)cc1` [Example 19, 6-[6-(2-Dimethylamino-ethylamino)-pyrimidin-4-yloxy]-naphtalene-1-carboxylic acid [5-tert-butyl-2-(4-methoxy-phenyl)-2H-pyrazol-3-yl]-amide] had a melting point of 116 to 117 °C.

In the case of `COCc1cc(Oc2ccc3c(C(=O)Nc4ccc(C)c(C(F)(F)F)c4)cccc3c2)ncn1` [Example 18C, 6-(6-Methoxymethyl-pyrimidin-4-yloxy)-naphthalene-1-carboxylic acid (4-methyl-3-trifluoromethyl-phenyl)-amide], the melting point was determined as 188 °C.

`CS(=O)(=O)Nc1nccc(Oc2ccc3c(C(=O)Nc4ccc(F)c(C(F)(F)F)c4)cccc3c2)n1` [Example 13, 6-(2-Methanesulfonylamino-pyrimidin-4-yloxy)-naphthalene-1-carboxylic acid (4-fluoro-3-trifluoromethyl-Phenyl)-amide] came in with a melting point of 246 °C.
